{
  "source": "patent US20250241901A1",
  "about": "“ACTIVATION OF MNRR1 / CHCHD2 AS A THERAPEUTIC TARGET FOR MITOCHONDRIA ASSOCIATED DISORDERS” (Wayne State University, priority 2024, published 2025)",
  "tested_on": "intra-amniotic LPS-induced preterm labor and birth",
  "assay": "Murine model of intra-amniotic LPS-induced preterm labor and birth",
  "format": "in vivo, mouse",
  "experimental": "FIGS. 2A-2F. Nitazoxanide prevents preterm delivery and improves neonatal mortality in vivo. (FIG. 2A) Schematic illustration depicting the administration of nitazoxanide (marketed under the commercial name Alinia) and LPS in the murine model of preterm birth. (FIG. 2B) Gestational length of mice was obtained using video-monitoring until delivery (n=6-8 animals). (FIG. 2C) Neonatal mortality was determined by calculating the number of dead pups over total litter size (n=6-8 animals). […] No pups from LPS-injected dams survived beyond week 0 of birth. (FIG. 2E) MNRR1 transcript levels were measured in mouse decidual tissue (17.5 dpc). Actin was used as a housekeeping gene to normalize expression (n=4 animals for all except PBS+N, where n=3). (FIG. 2F) Equal amounts of whole placental lysates were separated on an SDS-PAGE gel and probed for MNRR1 levels. Actin was used as a loading control. Gel is representative of data obtained from 2 animals. Keyfor FIGS. 2B, 2C, and 2E: PBS, phosphate buffered saline injection; LPS, lipopolysaccharide injection; PBS+N, PBS injection with oral gavage of nitazoxanide; LPS+N, LPS injection with oral gavage of nitazoxanide. Significance: *, p<0.05; **, p<0.01.\nAnimal model of intra-amniotic LPS-induced preterm labor and birth: Nitazoxanide (Alinia®; ROMARK, Tampa, FL, USA) was dissolved in sterile injectable water. The nitazoxanide volume was mouse weight dependent (100 μL of nitazoxanide solution at 200 mg/kg was administered for every mouse weight of 10 g). […] Dams were anesthetized on 16.5 dpc by inhalation of 2-3% (Fluriso™ (Isoflurane, USP), Vetone Boise, ID, USA) and 1-2 L/min of oxygen in an induction chamber. Anesthesia was maintained with a mixture of 1.5-2% isoflurane and 1.5-2 L/min of oxygen. Dams were positioned on a heating pad and stabilized with adhesive tape. Fur removal from the abdomen and thorax was performed by applying Nair cream (Church & Dwight Co., Inc., Ewing, NJ, USA) to those areas. Body temperature was detected with a rectal probe (VisualSonics Inc., Toronto, Ontario, Canada) and maintained in the range of 37±1° C. Respiratory and heart rates were monitored by electrodes embedded in the heating pad. An ultrasound probe was fixed and mobilized with a mechanical holder, and the transducer was slowly moved toward the abdomen. […] Following injection, dams were monitored by using a video camera with infrared light (Sony) until delivery. Video monitoring allowed for determination of gestational length, which was calculated from the presence of the vaginal plug (0.5 dpc) until the observation of the first pup in the cage bedding. […] The rates of neonatal mortality at birth were calculated as the number of pups found dead among the total litter size. […]",
  "key": {"[1]": {"settings": "200 mg/kg oral gavage, intra-amniotic LPS 16.5 dpc"}},
  "data": [
    {"compound": "CC(=O)Oc1ccccc1C(=O)Nc1ncc([N+](=O)[O-])s1", "note": "[nitazoxanide, Nitazoxanide]", "values": [
      {"measurement": "neonatal mortality at birth", "setting": "200 mg/kg oral gavage, LPS-injected dams, compared to controls", "result": "significantly reduced"},
      {"measurement": "LPS-induced preterm birth (delivery <18.5 dpc)", "setting": "[1]", "result": "preventing LPS-induced preterm birth (delivery <18.5 days post coitum (dpc)) in all pregnant dams"},
      {"measurement": "gestational age", "setting": "[1]", "result": "extended"},
      {"measurement": "neonates surviving up to 3 weeks", "setting": "neonates born to LPS-injected dams treated with nitazoxanide", "result": "almost one-half"}
    ]}
  ]
}
